Data as given in patent publication US20060058346A1, “Novel enantiomers of etrahydroisoquinoline derivatives and theirpharmaceutically acceptable salts, their preparations and pharmaceutical compositions” (priority 2002, published 2006).
Like-named read-outs stand apart in the source and are kept apart here.

What was measured:
LPS-injected rat = assay: Serum/plasma level of nitrate/nitrite (NOx) in LPS-injected rat; assay type: in vivo; conditions: 10 mg/kg compound; LPS 20 mg/kg
Method: The rats were divided into three groups; (1) LPS-injected group (LPS was administered to abdominal cavity in an amount of 20 mg/kg), (2) enantiomer-injected group (LPS+the compounds represented by formula 3 to 8 was administered to abdominal cavity) or (3) saline solution-injected group. After administration of LPS, the rats were anaesthetized with pentobarbital. The blood was collected from rats by using heart punching. The plasma level of nitrite was measured by using the nitrate reductase derived from Aspergillus species, where the nitrate was reduced by enzyme. Particularly, the plasma was diluted with distilled water in a ratio of 1:10. Analysis buffering solution (KH2PO4 50 Mm, NADPH 0.6 Mm, FAD 5 Mm and nitrate reductase 10 U/ml, Ph 5.5) was added to the said plasma. Thereafter, the reaction was accomplished at 37° C. for 30 min. The plasma level of nitrite was measured by using sodium nitrite as a standard, and Griess solution. Standard curve to nitrite was calculated from the result derived from incubation in analysis buffering solution.

Rat Thoracic Aortas = assay: Relaxation of rat thoracic aortas contracted by phenylephrine; conditions: for IC50: Rattus norvegicus, Endothelial cell, 0.1 μM phenylephrine contraction; for relaxation of contracted blood vessels: concentration-dependant manner
Method: Experimental group was divided into two groups, group containing endothelial cells of blood vessel and group not containing. Blood vessel of thoracic aortas was induced to contract by treatment with 0.1 μM of phenyleprine under tension of 1 g. Upon arriving at equilibrium, the enantiomers were added to an organ bath in a cumulative manner. Relaxation of thoracic aortas was recorded using a physiograph (Grass P7), calculating their response to the compounds with consideration of their added amount.

left auricle muscle = assay: Contractile force of left auricle muscle excised from rats; set-up: species or system rat; conditions: for Contractile Force of Auricle Muscles: vehicle control:100%
Method: Immediately after Sprague-Dawley rats (female or male) were anaesthetized with pentobarbital sodium (50 mg/kg, i.m.), the thorax was opened to excise the heart. The heart was submerged in Krebs solution, and left auricle muscle and right auricle muscle were then isolated. The left auricle muscle was placed in an organ bath for recording of contractile force, and applied with electrical field stimulation (voltage 10% higher than threshold voltage, 1 Hz frequency, 5 ms duration). In the case of right auricle muscle, which contracts spontaneously, the number of continuous beats was recorded. In this experiment, to measure contractile fore of the two auricle muscles, the organ bath was warmed to 37° C., and as a physiological solution, Krebs solution (119.8 mM NaCl, 4.6 mM KCl, 2.5 mM CaCl2, 1.2 mM MgCl2, 25 mM NaHCO3, 1.2 mM KH2PO4, 10 mM glucose, 1 mM EDTA, pH 7.4) was used. The Krebs solution (pH 7.4) was continuously saturated with a gas mixture of 95% O2 and 5% CO2. The auricle muscle was under a tension of 1 g, and Krebs solution was exchanged with fresh solution at intervals of 20 minutes while equilibrium was maintained during a recording period of 60 minutes.

iNOS = assay: Expression of iNOS stimulated by LPS in macrophage cell, Western blotting; assay type: cell-based; conditions: LPS 1 μg/ml; 10, 50, 100 μM; FIG. 1
Method: Macrophage cells (RAW 264.7 cell) were plated on 100 mm culture dishes at a density of 1-2×10^5 cells and incubated in DMEM medium containing 10% fetal calf serum (heat-inactivated), 100 U/ml penicillin, and […] streptomycin in a CO2 incubator. When being grown to complete confluence, macrophage cell was inoculated in serum-free DMEM medium, and further incubated for about 24 hours. Thereafter, macrophage cells were stimulated in the presence of LPS (1 μg/ml) and each of the compounds represented by the formulas 3 to 8 for about 12 hours. Total protein was isolated from the macrophage cells. The isolated protein was quantified by using Bradford method. 10 μg of isolated protein was loaded in SDS-PAGE electroporesis gel. The said gel was transferred to PVDF membrane. Anti-iNOS antibody was added to the said gel, thereafter disposed at 4° C. overnight. Thereafter, secondary antibody was added to the said gel, reacted for 1 hour at the room temperature and sensitized using ECL. Expression of protein was quantified, compared to the expressed Actin.

[1] = group containing endothelial cells, read-out: IC50 (E+), concentration showing relaxation response of 50%
[2] = group not containing endothelial cells, read-out: IC50 (E−), concentration showing relaxation response of 50%

Row | SMILES | plasma level of NOx (LPS-injected rat) [µM] | IC50 (Rat Thoracic Aortas; [1]) [µM] | IC50 (Rat Thoracic Aortas; [2]) [µM] | relaxation of contracted blood vessels (Rat Thoracic Aortas) | effect on contractile force of auricle muscles (left auricle muscle) | Contractile Force of Auricle Muscles (left auricle muscle; 1 × 10^−4 M) [%] | Contractile Force of Auricle Muscles (left auricle muscle; 1 × 10^−5 M) [%] | Contractile Force of Auricle Muscles (left auricle muscle; 1 × 10^−6 M) [%] | Contractile Force of Auricle Muscles (left auricle muscle; 1 × 10^−7 M) [%] | Contractile Force of Auricle Muscles (left auricle muscle; 3 × 10^−5 M) [%] | Contractile Force of Auricle Muscles (left auricle muscle; 3 × 10^−6 M) [%] | Contractile Force of Auricle Muscles (left auricle muscle; 3 × 10^−7 M) [%] | expression of iNOS protein (iNOS)
1 | Oc1ccc(C[C@H]2NCCc3cc(O)c(O)cc32)cc1 [Formula 4, (R)-6,7-Dihydroxy-1-(p-hydroxyphenylmethyl)-1,2,3,4-tetrahydroisoquinoline] | 85 ± 7 | 4.64 | 7.7 | induced relaxation | increased | 300 | 200 | 130 | 100 | 250 | 160 | 100 | 
2 | Oc1cc2c(cc1O)[C@@H](Cc1ccc3ccccc3c1)NCC2 [Formula 8, (R)-6,7-Dihydroxy-1-(β-naphthylmethyl)-1,2,3,4-tetrahydroisoquinoline] |  | 1.95 | 7.54 | induced relaxation | no effect | 105 | 100 | 100 | 100 | 105 | 100 | 100 | 
3 | Oc1cc2c(cc1O)[C@@H](Cc1cccc3ccccc13)NCC2 [Formula 6, (R)-6,7-Dihydroxy-1-(α-naphthylmethyl)-1,2,3,4-tetrahydroisoquinoline] |  | 1.28 | 8.81 | induced relaxation | no effect | 50 | 50 | 75 | 100 | 50 | 50 | 87 | 
4 | Oc1cc2c(cc1O)[C@H](Cc1cccc3ccccc13)NCC2 [Formula 5] |  | 0.714 | 5.5 | induced relaxation | strongly increased | 700 | 630 | 450 | 200 | 660 | 550 | 280 | inhibited expression of iNOS protein strongly than R-enantiomer
5 | Oc1ccc(C[C@@H]2NCCc3cc(O)c(O)cc32)cc1 [Formula 3, (S)-6,7-Dihydroxy-1-(p-hydroxyphenylmethyl)-1,2,3,4-tetrahydroisoquinoline] | 29 ± 3 | 0.917 | 4.3 | induced relaxation |  | 300 | 300 | 250 | 140 | 300 | 290 | 180 | inhibited expression of iNOS protein strongly than R-enantiomer
6 | Oc1cc2c(cc1O)[C@H](Cc1ccc3ccccc3c1)NCC2 [Formula 7, (S)-6,7-Dihydroxy-1-(β-naphthylmethyl)-1,2,3,4-tetrahydroisoquinoline] |  | 0.757 | 3.14 | induced relaxation | strongly increased | 380 | 350 | 250 | 120 | 380 | 315 | 170 | inhibited expression of iNOS protein strongly than R-enantiomer
